target: T1, human CCR1 (Homo sapiens, UniProt P32246); assay: CCR1 binding protocol (SPA, [125I]-MIP-1α displacement); settings: cell membrane expressing human CCR1, 0.1 nM [125I]-MIP-1α, 4 hours at ambient temperature; read-out: Relative potency (IC50)
T1 sequence (P32246 1-355): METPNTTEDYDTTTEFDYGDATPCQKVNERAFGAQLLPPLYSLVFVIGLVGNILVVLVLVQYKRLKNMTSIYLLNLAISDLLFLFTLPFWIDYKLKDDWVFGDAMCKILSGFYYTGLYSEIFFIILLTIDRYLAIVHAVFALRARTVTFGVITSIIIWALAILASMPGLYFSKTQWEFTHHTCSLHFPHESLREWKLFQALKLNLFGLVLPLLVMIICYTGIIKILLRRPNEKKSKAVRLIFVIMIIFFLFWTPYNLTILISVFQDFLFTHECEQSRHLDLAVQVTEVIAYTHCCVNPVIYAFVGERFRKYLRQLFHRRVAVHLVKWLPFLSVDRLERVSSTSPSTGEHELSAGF
Description: The following protocol was used to test compounds for CCR1 binding. A mixture, including scintillation proximity assay (SPA) beads and cell membrane expressing human CCR1, was prepared in assay buffer (130 mM NaCl+5 mM KCl+1 mM MnCl+50 mM Tris HCl at pH 7.4+0.1% bovine serum albumin (BSA)) at the ratio of 50 μg/ml membrane to 10 mg/ml SPA beads. 10 μl of the mixture was transferred to each well of a 384-well assay plate yielding a final concentration for the membrane and SPA beads of 0.5 μg/well and 100 μg/well, respectively
To generate different concentrations of the test compound, compound stocks were prepared using 10 step ½ log dilutions with a high concentration of 10 mM in DMSO and the lowest concentration being DMSO only without compound. An intermediate 40× dilution was then prepared in the assay buffer. The compound was then transferred at 10 μl/well to the assay plate. 0.5 nM [^125 I]-labeled macrophage inflammatory protein-1α (MIP-1α, an endogenous CCR1 ligand) in the assay buffer was transferred to the assay plate at 5 μl/well, for a final ligand concentration of 0.1 nM. The assay plate was then centrifuged at 2500 rpm for 2 minutes and incubated for 4 hours at ambient temperature, at which time the raw data was recorded using microbeta. The IC50 was then calculated using Graphpad Prism.

Structure (SMILES)	IC50 [nM]
Cc1nnc([C@H]2CCCN2C(=O)Nc2ccc3c(c2)N(C)C(=O)CO3)n1Cc1ccc(Cl)cc1 [Compound 137]	50 to 500
Cc1nnc([C@H]2CCCN2C(=O)N[C@H]2COCc3c(F)cccc32)n1Cc1ccc(Cl)cc1 [Compound 138]	50 to 500
Cc1nnc([C@H]2CCCN2C(=O)NC(C)c2cccnc2)n1Cc1ccc(Cl)cc1 (stereo partly shown) [Compound 139]	50 to 500
Cc1nnc([C@H]2CCCN2C(=O)N[C@H](C)c2cccnc2)n1Cc1ccc(Cl)cc1 [Compound 140]	50 to 500
Cc1nnc([C@H]2CCCN2C(=O)N[C@@H]2COCc3c(F)cccc32)n1Cc1ccc(Cl)cc1 [Compound 141]	50 to 500
Cc1nnc([C@H]2CCCN2C(=O)NC2COCc3c(F)cccc32)n1Cc1ccc(Cl)cc1 (stereo partly shown) [Compound 142]	50 to 500
Cc1nnc([C@H]2CCCN2C(=O)N[C@@H]2CCc3cc(Cl)ccc32)n1Cc1ccc(Cl)cc1 [Compound 143]	50 to 500
Cc1nnc([C@H]2CCCN2C(=O)NCc2cccc(C(F)(F)F)c2)n1Cc1ccc(Cl)cc1 [Compound 145]	50 to 500
Cc1nnc([C@H]2CCCN2C(=O)Nc2ccccc2C(F)(F)F)n1Cc1ccc(Cl)cc1 [Compound 146]	50 to 500
O=C(N[C@@H]1CCCOc2ccc(Cl)cc21)N1CCC[C@@H]1c1nncn1Cc1ccc(Cl)cc1 [Compound 148]	50 to 500
Cc1nnc([C@H]2CCCN2C(=O)Nc2ccc(C(F)(F)F)cc2Cl)n1Cc1ccc(Cl)cc1 [Compound 154]	50 to 500
Cc1nnc([C@H]2CCCN2C(=O)N[C@H]2CCc3ccccc32)n1Cc1ccc(Cl)cc1 [Compound 155]	50 to 500
Cc1nnc([C@H]2CCCN2C(=O)N[C@H]2CCCOc3ccc(Cl)cc32)n1Cc1ccc(Cl)cc1 [Compound 156]	50 to 500
Cc1nnc([C@H]2CCCN2C(=O)N[C@H]2CCOc3ccc(F)cc32)n1Cc1ccc(Cl)cc1 [Compound 157]	50 to 500
Cc1cccc(C)c1NC(=O)N1CCC[C@@H]1c1nnc(C)n1Cc1ccc(Cl)cc1 [Compound 158]	50 to 500
O=C(N[C@H]1CCCOc2ccc(Cl)cc21)N1CCC[C@@H]1c1nncn1Cc1ccc(Cl)cc1 [Compound 159]	50 to 500
Cc1nnc([C@H]2CCCN2C(=O)Nc2ccc(Cl)cc2)n1Cc1ccc(Cl)cc1 [Compound 160]	50 to 500
Cc1nnc([C@H]2CCCN2C(=O)N[C@H]2CCOc3c(F)ccc(F)c32)n1Cc1ccc(Cl)cc1 [Compound 161]	50 to 500
Cc1nnc([C@H]2CCCN2C(=O)Nc2ccc(Br)cc2)n1Cc1ccc(Cl)cc1 [Compound 162]	50 to 500
Cc1nnc([C@H]2CCCN2C(=O)Nc2cccc(Cl)c2)n1Cc1ccc(Cl)cc1 [Compound 163]	50 to 500
Cc1nnc([C@H]2CCCN2C(=O)N[C@H]2CCOc3cccc(F)c32)n1Cc1ccc(Cl)cc1 [Compound 164]	50 to 500
Cc1nnc([C@H]2CCCN2C(=O)N[C@H]2CCOc3c(F)ccc(Cl)c32)n1Cc1ccc(Cl)cc1 [Compound 165]	50 to 500
Cc1nnc([C@H]2CCCN2C(=O)N[C@H]2CCc3ccc(C(F)(F)F)cc32)n1Cc1ccc(Cl)cc1 [Compound 171]	50 to 500

Structure (SMILES)	IC50 [nM]
Cc1nnc([C@H]2CCCN2C(=O)N[C@H]2CCCc3ccccc32)n1Cc1ccc(Cl)cc1 [Compound 172]	50 to 500
Cc1nnc([C@H]2CCCN2C(=O)Cc2ccc(C(F)(F)F)cc2)n1Cc1ccc(Cl)cc1 [Compound 173]	50 to 500
Cc1nnc([C@H]2CCCN2C(=O)Cc2ccc(Cl)cc2)n1Cc1ccc(Cl)cc1 [Compound 174]	50 to 500
Cc1nnc([C@H]2CCCN2C(=O)Oc2ccc(Cl)cc2)n1Cc1ccc(Cl)cc1 [Compound 175]	500 to 5000
Cc1nnc([C@H]2CCCN2C(=O)Oc2ccc(F)cc2)n1Cc1ccc(Cl)cc1 [Compound 176]	500 to 5000
CC[C@H](NC(=O)N1CCC[C@@H]1c1nnc(C)n1Cc1ccc(Cl)cc1)c1ccccc1 [Compound 181]	< 50
Cc1nnc([C@H]2CCCN2C(=O)Nc2c(Cl)ncnc2N(C)C)n1Cc1ccc(Cl)cc1 [Compound 182]	< 50
CCC(CC)NC(=O)N1CCC[C@@H]1c1nnc(C)n1Cc1ccc(Cl)cc1 [Compound 183]	50 to 500
Cc1nnc([C@H]2CCCN2C(=O)N[C@@H](C)C2CCCCC2)n1Cc1ccc(Cl)cc1 [Compound 184]	50 to 500
Cc1nnc([C@H]2CCCN2C(=O)NC2CCCCC2)n1Cc1ccc(Cl)cc1 [Compound 185]	50 to 500
Cc1nnc([C@H]2CCCN2C(=O)NC2CCCCCC2)n1Cc1ccc(Cl)cc1 [Compound 186]	50 to 500
Cc1noc(-c2ccccc2)c1NC(=O)N1CCC[C@@H]1c1nnc(Cl)n1Cc1ccc(Cl)cc1 [Compound 187]	< 50
Cc1nc(Cl)nc(Cl)c1NC(=O)N1CCC[C@@H]1c1nnc(C)n1Cc1ccc(Cl)cc1 [Compound 188]	< 50
COC(=O)c1cccc(NC(=O)N2CCC[C@@H]2c2nnc(C)n2Cc2ccc(Cl)cc2)c1C [Compound 189]	< 50
Cc1cc(C(F)(F)F)ccc1NC(=O)N1CCC[C@@H]1c1nnc(C)n1Cc1ccc(Cl)cc1 [Compound 190]	< 50
CC[C@H](NC(=O)N1CCC[C@@H]1c1nnc(C)n1Cc1ccc(Cl)cc1)c1ccc(Cl)c(Cl)c1 [Compound 191]	< 50
Cc1nnc([C@H]2CCCN2C(=O)Nc2c(Cl)nc(N)nc2Cl)n1Cc1ccc(Cl)cc1 [Compound 192]	< 50
COC(=O)c1ccc(C)c(NC(=O)N2CCC[C@@H]2c2nnc(C)n2Cc2ccc(Cl)cc2)c1 [Compound 193]	< 50
O=C(N[C@H]1CCOc2cc(C(F)(F)F)ccc21)N1CCC[C@@H]1c1nnc(Cl)n1Cc1ccc(Cl)cc1 [Compound 194]	< 50
Cc1nnc([C@H]2CCCN2/C(=N\C#N)N[C@@H](C)c2cc3ccccc3o2)n1Cc1ccc(Cl)cc1 [Compound 195]	< 50
CC[C@H](N/C(=N/C#N)N1CCC[C@@H]1c1nnc(C)n1Cc1ccc(Cl)cc1)c1cc2ccccc2o1 [Compound 196]	< 50
Cc1nnc([C@H]2CCCN2C(=O)Nc2ccc(Br)cc2C(F)(F)F)n1Cc1ccc(Cl)cc1 [Compound 197]	< 50

Second part, the molecule after the results:

IC50 [nM]	Structure (SMILES)
< 50	Cc1nnc([C@H]2CCCN2C(=O)Nc2ccc(C(C)(C)C)cc2)n1Cc1ccc(Cl)cc1 [Compound 133]
< 50	Cc1nnc([C@H]2CCCN2C(=O)NC2CCOc3cc(C#N)ccc32)n1Cc1ccc(Cl)cc1 (stereo partly shown) [Compound 134]
< 50	Cc1nnc([C@H]2CCCN2C(=O)Nc2ccc3ccccc3c2)n1Cc1ccc(Cl)cc1 [Compound 135]
< 50	Cc1nnc([C@H]2CCCN2C(=O)Nc2ccc(OC(F)(F)F)cc2)n1Cc1ccc(Cl)cc1 [Compound 136]
< 50	Cc1nnc([C@H]2CCCN2C(=O)Nc2ccc(Cl)cc2F)n1Cc1ccc(Cl)cc1 [Compound 144]
< 50	Cc1nnc([C@H]2CCCN2C(=O)N[C@@H]2CCCOc3ccc(Cl)cc32)n1Cc1ccc(Cl)cc1 [Compound 147]
< 50	Cc1nnc([C@H]2CCCN2C(=O)N[C@H]2CCOc3c(F)cccc32)n1Cc1ccc(Cl)cc1 [Compound 149]
< 50	Cc1cc(C)c(NC(=O)N2CCC[C@@H]2c2nnc(C)n2Cc2ccc(Cl)cc2)c(C)c1 [Compound 150]
< 50	Cc1cccc(Cl)c1NC(=O)N1CCC[C@@H]1c1nnc(C)n1Cc1ccc(Cl)cc1 [Compound 151]
< 50	Cc1nnc([C@H]2CCCN2C(=O)N[C@H]2CCOc3cc(F)ccc32)n1Cc1ccc(Cl)cc1 [Compound 152]
< 50	Cc1nnc([C@H]2CCCN2C(=O)N[C@H]2CCOc3c(F)cc(F)cc32)n1Cc1ccc(Cl)cc1 [Compound 153]
< 50	CCc1nnc([C@H]2CCCN2C(=O)Nc2c(C)cc(C(F)(F)F)cc2C)n1Cc1ccc(Cl)cc1 [Compound 167]
< 50	Cc1nnc([C@H]2CCCN2C(=O)N[C@@H](C)c2ccc(Cl)c(Cl)c2)n1Cc1ccc(Cl)cc1 [Compound 168]
< 50	Cc1nnc([C@H]2CCCN2C(=O)N[C@H]2CCc3cc(C(F)(F)F)ccc32)n1Cc1ccc(Cl)cc1 [Compound 169]
< 50	Cc1nnc([C@H]2CCCN2C(=O)N[C@@H](C)c2ccc(Cl)cc2)n1Cc1ccc(Cl)cc1 [Compound 170]
< 50	Cc1nnc([C@H]2CCCN2C(=O)NC2CCCOc3cc(C(F)(F)F)ccc32)n1Cc1ccc(Cl)cc1 (stereo partly shown) [Compound 177]
< 50	Cc1nc(Cl)c(NC(=O)N2CCC[C@@H]2c2nnc(C)n2Cc2ccc(Cl)cc2)c(Cl)n1 [Compound 178]
< 50	Cc1nnc([C@H]2CCCN2C(=O)NC(C)(C)c2ccccc2)n1Cc1ccc(Cl)cc1 [Compound 179]
< 50	Cc1nnc([C@H]2CCCN2C(=O)N[C@H](C)c2ccc(Cl)cc2)n1Cc1ccc(Cl)cc1 [Compound 180]

From patent publication US8288371B2, “Ortho pyrrolidine, benzyl-substituted heterocycle CCR1 antagonists for autoimmune diseases and inflammation” (Pharmacopeia, LLC, priority 2007, dated 2012)
